# Measurements taken from ChEMBL document CHEMBL1131037, “Structure-based design, synthesis, and biological evaluation of irreversible human rhinovirus 3C protease inhibitors. 2. Peptide structure-activity studies” (J Med Chem, 1998).
# Legend:
# [1] = molecular target: T1, Human rhinovirus A protease (Human rhinovirus sp.) (UniProt Q4U254); test: Binding affinity on human Rhinovirus 3C protease (rhinovirus serotype 14)
# T1 sequence (whole entry): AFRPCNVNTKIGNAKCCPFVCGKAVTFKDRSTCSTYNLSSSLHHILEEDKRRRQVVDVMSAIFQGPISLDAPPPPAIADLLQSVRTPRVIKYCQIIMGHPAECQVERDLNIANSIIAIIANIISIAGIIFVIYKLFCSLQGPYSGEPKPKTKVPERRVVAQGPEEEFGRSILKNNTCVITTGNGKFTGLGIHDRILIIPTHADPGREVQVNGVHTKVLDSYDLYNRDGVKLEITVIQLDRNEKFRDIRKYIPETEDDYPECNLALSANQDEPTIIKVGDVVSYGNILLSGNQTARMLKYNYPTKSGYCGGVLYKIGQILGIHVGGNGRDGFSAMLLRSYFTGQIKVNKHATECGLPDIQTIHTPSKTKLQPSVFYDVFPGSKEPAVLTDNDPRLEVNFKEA
# [2] = tested on: rhinovirus B14; test: Cytotoxic activity against HRV-14 in cell culture; format: functional, rhinovirus 14; settings: Rhinovirus B
# [3] = tested on: rhinovirus B14; test: Antiviral activity against HRV-14 in cell culture; format: functional, organism-based; settings: Rhinovirus B
Structure (SMILES),K obs / 1 [1] [M⁻¹ s⁻¹],CC50 [2] [µM],EC50 [3] [µM]
CCOC(=O)/C=C/[C@H](CCC(N)=O)NC(=O)[C@H](Cc1ccccc1)NC(=O)[C@H](CC(C)C)NC(=O)C(C)C,18800,> 320,1
CCOC(=O)/C=C/[C@H](CCC(=O)NC)NC(=O)[C@H](Cc1ccccc1)NC(=O)[C@H](CC(C)C)NC(=O)OCc1ccccc1,750,> 100,5.6
CCOC(=O)/C=C/[C@H](CCC(N)=O)NC(=O)OCc1ccccc1,4.5,> 100,> 100
CCOC(=O)/C=C/[C@H](CCC(N)=O)NC(=O)[C@H](Cc1ccccc1)NC(=O)OCc1ccccc1,400,> 100,5.6
CCOC(=O)/C=C/[C@H](CCC(N)=O)NC(=O)[C@H](Cc1ccccc1)NC(=O)[C@H](CC(C)C)NC(=O)c1ccccc1,9600,> 320,5.2
CCOC(=O)/C=C/[C@H](CCC(C)=O)NC(=O)[C@H](Cc1ccccc1)NC(=O)[C@H](CC(C)C)NC(=O)OCc1ccccc1,1400,> 100,1.6
CCOC(=O)/C=C/[C@H](CCC(=O)O)NC(=O)[C@H](Cc1ccccc1)NC(=O)[C@H](CC(C)C)NC(=O)OCc1ccccc1,500,> 100,14
CCOC(=O)/C=C/[C@H](CCC(N)=O)NC(=O)[C@H](Cc1ccc(OC(C)=O)cc1)NC(=O)[C@H](CC(C)C)NC(=O)OCc1ccccc1,1200,> 320,11
CCOC(=O)/C=C/[C@H](CCS(C)(=O)=O)NC(=O)[C@H](Cc1ccccc1)NC(=O)[C@H](CC(C)C)NC(=O)OCc1ccccc1,60,> 100,> 100
CCOC(=O)/C=C/[C@H](CCC(N)=O)NC(=O)[C@H](CSCC)NC(=O)[C@H](CC(C)C)NC(=O)OCc1ccccc1,3000,> 320,10
CCOC(=O)/C=C/[C@H](CCC(N)=O)NC(=O)[C@H](CC(C)C)NC(=O)[C@H](CC(C)C)NC(=O)OCc1ccccc1,2300,> 320,5.4
CCOC(=O)/C=C/[C@H](CCC(N)=O)NC(=O)[C@H](Cc1ccccc1)NC(=O)[C@H](CC(=O)N(C)C)NC(=O)OCc1ccccc1,22600,> 320,5.9
CCOC(=O)/C=C/[C@H](CCC(N)=O)NC(=O)[C@H](Cc1ccccc1)NC(=O)[C@H](CSc1ccccc1)NC(=O)OCc1ccccc1,141000,> 320,0.12
CCOC(=O)/C=C/[C@H](CCC(N)=O)NC(=O)[C@H](Cc1ccccc1)NC(=O)[C@H](CC(C)C)NC(=O)OCc1ccccc1C,41800,> 100,1
CCOC(=O)/C=C/[C@H](CCC(N)=O)NC(=O)[C@H](Cc1ccccc1)NC(=O)[C@H](CCN1CCOCC1)NC(=O)OCc1ccccc1,35000,> 100,5.1
CCOC(=O)/C=C/[C@H](CNC(C)=O)NC(=O)[C@H](Cc1ccccc1)NC(=O)[C@H](CC(C)C)NC(=O)OCc1ccccc1,800,> 320,2.2
CCOC(=O)/C=C/[C@H](CCC(N)=O)NC(=O)[C@H](Cc1ccccc1)NC(=O)[C@H](CCC(=O)O)NC(=O)OCc1ccccc1,78900,> 320,5.5
CCOC(=O)/C=C/[C@H](CCC(N)=O)NC(=O)C(NC(=O)[C@H](CC(C)C)NC(=O)OCc1ccccc1)[C@H](C)O (some centres undefined),1800,> 320,56
CCOC(=O)/C=C/[C@H](CCC(N)=O)NC(=O)[C@H](Cc1ccccc1)NC(=O)[C@@H](NC(=O)OCc1ccccc1)C1CCCCC1,36200,> 100,1
CCOC(=O)/C=C/[C@H](CCC(N)=O)NC(=O)[C@H](CCC(=O)O)NC(=O)[C@H](CC(C)C)NC(=O)OCc1ccccc1,200,> 320,> 320
CCOC(=O)/C=C/[C@H](CCC(N)=O)NC(=O)[C@H](Cc1ccc(CO)cc1)NC(=O)[C@H](CC(C)C)NC(=O)OCc1ccccc1,82300,> 320,0.55
CCOC(=O)/C=C/[C@H](CCC(=O)N(C)C)NC(=O)[C@H](Cc1ccccc1)NC(=O)[C@H](CC(C)C)NC(=O)OCc1ccccc1,60,> 100,4
CCOC(=O)/C=C/[C@H](CO)NC(=O)[C@H](Cc1ccccc1)NC(=O)[C@H](CC(C)C)NC(=O)OCc1ccccc1,0,190,> 190
